Measured values as given in US20210363152A1, “AMINOAZINE AMIDES” (Hoffmann-La Roche Inc., priority 2018, published 2021).

These compounds were tested against T1, Autotaxin enzyme (ATX) (Homo sapiens, UniProt Q13822) (assay: In vitro ATX assay (enzymatic ATX inhibition, LPC 14:0 substrate, choline oxidase/HRP absorbance readout)). Details: 0.3 mM LPC 14:0, 37° C., 4 hours, absorbance 555 nm.
T1 construct: purchased Echelon Biosciences, Inc. E-4000
Type: biochemical
Experimental: • Assay buffer: 100 mM Tris-HCl, pH 9.0, 500 mM NaCl, 5 mM MgCl2, 30 μM CoCl2, 0.05% Triton X-100 • Assay buffer II: 4.5 mM 4-AAP, 2.7 mM TOOS, 21.2 U/mL HRP, 3 U/mL CO, In 50 mM Tris-HCl pH 8.0, 4.5 mM MgCl2
A compound preparation plate (Nunc 249944) was prepared by adding 30 mM stock solution (in DMSO) of test compound and performing a serial full-log dilution down to 30 nM. Two μL/well were transferred from the first compound prep plate to a compound dilution plate (Corning, 3641) and 198 μL assay buffer I was added for a […].
A 10 ng/mL solution of ATX was prepared by diluting in assay buffer I, and 80 μL/well were added to the assay plate (Corning, 3641); negative control wells contained 80 μL/well assay buffer I only (no ATX). Ten μL/well from the compound dilution plate (containing serially diluted test compound or DMSO) were added to the assay plate, which was then incubated at 37° C. for 15 minutes. A solution of LPC 14:0 was prepared in assay buffer I at 3 mM and 10 μl/well were added to the assay plate, for a final concentration of 0.3 mM LPC, and returned to 37° C. incubator for 4 hours. After 4 hour incubation, 100 μL/well of assay buffer II was added to all wells of the assay plate. The plate was incubated at RT for 15 minutes, prior to reading on FlexStation in absorbance mode, 555 nm. Results in the enzymatic ATX inhibition assay are provided for compounds of formula (I). An IC50 value of “A” is less than 100 nM, “B” is equal to or greater than 100 nM but less than 1 μM, “C” is equal to or greater than 1 μM.

| SMILES | IC50 [nM] |
| --- | --- |
| CC(C)c1cc(CNc2ncc(C(=O)N3CCCC3)cn2)cc(OC(F)(F)F)c1 [Example 21] | < 100 |
| O=C(c1cnc(NCc2cccc(Cl)c2)nc1)N1CCC12COC2 [Example 15] | ≥ 1000 |
| CN1CCCC2(CCN2C(=O)c2cnc(NCc3cc(OC(F)(F)F)cc(C4CC4)c3)nc2)C1 (stereo not drawn) [Example 156, (2-((3-Cyclopropyl-5-(trifluoromethoxy)benzyl)amino)pyrimidin-5-yl)(6-methyl-1,6-diazaspiro[3.5]nonan-1-yl)methanone] | < 100 |
| CS(=O)(=O)N1CC2(CCN2C(=O)c2cnc(NC3Cc4ccc(Cl)cc4C3)nc2)C1 (stereo not drawn) [Example 152, (2-((5-Chloro-2,3-dihydro-1H-inden-2-yl)amino)pyrimidin-5-yl)(6-(methylsulfonyl)-1,6-diazaspiro[3.3]heptan-1-yl)methanone] | < 100 |
| CC(C)Oc1cc(CNc2ncc(C(=O)N3CCC34COC4)cn2)cc(N2CCC2)c1 [Example 63] | 100 to 1000 |
| O=C(c1cnc(NC2Cc3ccc(Cl)cc3C2)nc1)N1CCC12COC2 (stereo not drawn) [Example 33] | < 100 |
| CCc1cc(CNc2ncc(C(=O)N3CCC34COC4)cn2)cc(OC(F)(F)F)c1 [Example 123, (2-((3-Ethyl-5-(trifluoromethoxy)benzyl)amino)pyrimidin-5-yl)(6-oxa-1-azaspiro[3.3]heptan-1-yl)methanone] | < 100 |
| O=C(c1cnc(NCc2cc(OC(F)(F)F)cc(C3CC3)c2)nc1)N1CCC12CN(CC(F)(F)F)C2 [Example 148, (2-((3-Cyclopropyl-5-(trifluoromethoxy)benzyl)amino)pyrimidin-5-yl) (6-(2,2,2-trifluoroethyl)-1,6-diazaspiro[3.3]heptan-1-yl)methanone] | < 100 |
| O=C(c1cnc(NC2Cc3ccc(Cl)cc3C2)nc1)N1CCC1 (stereo not drawn) [Example 56] | < 100 |
| O=C(c1cnc(NCc2cc(OC(F)(F)F)cc(C3CC3)c2)nc1)N1CCc2cnccc21 [Example 91, (2-((3-cyclopropyl-5-(trifluoromethoxy)benzyl)ami-no)pyrimidin-5-yl)(2,3-dihydro-1H-pyrrolo[3,2-c]pyridin-1-yl)methanone] | 100 to 1000 |
| CS(=O)(=O)c1cccc(CNc2ncc(C(=O)N3CCC34COC4)cn2)c1 [Example 16] | ≥ 1000 |
| O=C(c1cnc(NCc2cc(C3CC3)cc(C3CC3)c2)nc1)N1CCC12COC2 [Example 37] | < 100 |
| CC(C)(C)c1cc(CNc2ncc(C(=O)N3CCC34COC4)cn2)cc(OC(F)(F)F)c1 [Example 4] | < 100 |
| CC(C)Oc1cc(CNc2ncc(C(=O)N3CCC34COC4)cn2)cc(C2CC2)c1 [Example 38] | < 100 |
| O=C(c1cnc(NCc2cc(OC(F)(F)F)cc(C3CC3)c2)nc1)N1CCC2COCC21 (stereo not drawn) [Example 111, (2-((3-cyclopropyl-5-(trifluoromethoxy)benzyl)ami-no)pyrimidin-5-yl)(hexahydro-1H-furo[3,4-b]pyrrol-1-yl)methanone] | < 100 |
| O=C(c1ccc(NCc2cccc(OC(F)(F)F)c2)nn1)N1CCC12COC2 [Example 72, 6-Oxa-1-azaspiro[3.3]heptan-1-yl(6-((3-(trifluoromethoxy)benzyl)amino)pyridazin-3-yl)methanone] | ≥ 1000 |
| O=C(c1cnc(NCc2cc(OCC(F)(F)F)cc(OC(F)(F)F)c2)nc1)N1CCC12COC2 [Example 35] | < 100 |
| Cc1ccc2c(c1)CC(Nc1ncc(C(=O)N3CCC34COC4)cn1)C2 (stereo not drawn) [Example 124, (2-((5-Methyl-2,3-dihydro-1H-inden-2-yl)amino)pyrimidin-5-yl)(6-oxa-1-azaspiro[3.3]heptan-1-yl)methanone] | 100 to 1000 |
| CC1CCN1C(=O)c1cnc(NCc2cc(Cl)cc(Cl)c2)nc1 (stereo not drawn) [Example 10] | 100 to 1000 |
| CC(=O)N1CC2(CCN2C(=O)c2cnc(NCc3cc(OC(F)(F)F)cc(C4CC4)c3)nc2)C1 [Example 153, 1-(1-(2-((3-Cyclopropyl-5-(trifluoromethoxy)benzyl)amino)pyrimidine-5-carbonyl)-1,6-diazaspiro[3.3]heptan-6-yl)ethanone] | < 100 |
| O=C(c1cnc(NCc2cccc(C(F)(F)F)c2)nc1)N1CCC12COC2 [Example 20] | ≥ 1000 |
| O=C(c1cnc(NCc2cc(OC(F)(F)F)cc(C3CC3)c2)nc1)N1CCC12CNC2 [Example 141, (2-((3-Cyclopropyl-5-(trifluoromethoxy)benzyl)amino)pyrimidin-5-yl)(1,6-diazaspiro[3.3]heptan-1-yl)methanone] | < 100 |
| CC(C)c1cc(CNc2ncc(C(=O)N3CCC34CN(S(C)(=O)=O)C4)cn2)cc(OC(F)(F)F)c1 [Example 151, (2-((3-Isopropyl-5-(trifluoromethoxy)benzyl)amino)pyrimidin-5-yl) (6-(methylsulfonyl)-1,6-diazaspiro[3.3]heptan-1-yl)methanone] | < 100 |
| CN1CCC2(CCN2C(=O)c2cnc(NCc3cc(OC(F)(F)F)cc(C4CC4)c3)nc2)C1 (stereo not drawn) [Example 155, (2-((3-Cyclopropyl-5-(trifluoromethoxy)benzyl)amino)pyrimidin-5-yl)(6-methyl-1,6-diazaspiro[3.4]octan-1-yl)methanone] | < 100 |
| CS(=O)(=O)C1CN(C(=O)c2cnc(NCc3cc(OC(F)(F)F)cc(C4CC4)c3)nc2)C1 [Example 88, (2-((3-cyclopropyl-5-(trifluoromethoxy)benzyl)ami-no)pyrimidin-5-yl)(3-(methylsulfonyl)azetidin-1-yl)methanone] | 100 to 1000 |

The remaining lines, values ahead:

| IC50 [nM] | SMILES |
| --- | --- |
| < 100 | COC[C@@H]1CCN1C(=O)c1cnc(NCc2cc(OC(F)(F)F)cc(C3CC3)c2)nc1 [Example 104, (S)-(2-((3-cyclopropyl-5-(trifluoromethoxy)benzyl)ami-no)pyrimidin-5-yl)(2-(methoxymethyl)azetidin-1-yl)methanone] |
| < 100 | O=C(c1cnc(NCc2cc(OC(F)(F)F)cc(C3CC3)c2)nc1)N1CCC12CN(C1CC1)C2 [Example 146, (2-((3-Cyclopropyl-5-(trifluoromethoxy)benzyl)amino)pyrimidin-5-yl) (6-cyclopropyl-1,6-diazaspiro[3.3]heptan-1-yl)methanone] |
| 100 to 1000 | CN(C)CC1CN(C(=O)c2cnc(NCc3cc(OC(F)(F)F)cc(C4CC4)c3)nc2)C1 [Example 100, (2-((3-cyclopropyl-5-(trifluoromethoxy)benzyl)ami-no)pyrimidin-5-yl)(3-((dimethylamino)methyl)azeti-din-1-yl)methanone] |
| 100 to 1000 | O=C(c1cnc(NCc2cc(OC(F)(F)F)cc(C3CC3)c2)nc1)N1CC2(COC2)C1 [Example 82, (2-((3-cyclopropyl-5-(trifluoromethoxy)benzyl)ami-no)pyrimidin-5-yl)(2-oxa-6-azaspiro[3.3]heptan-6-yl)methanone] |
| < 100 | O=C(c1cnc(NC2Cc3ccc(Cl)cc3C2)nc1)N1CCC12CS(=O)(=O)C2 (stereo not drawn) [Example 49] |
| < 100 | CC(C)c1cc(CNc2cnc(C(=O)N3CCC34COC4)cn2)cc(OC(F)(F)F)c1 [Example 75, (5-((3-Isopropyl-5-(trifluoromethoxy)benzyl)amino)pyrazin-2-yl)(6-oxa-1-azaspiro[3.3]heptan-1-yl)methanone] |
| 100 to 1000 | COC[C@@H]1CCCN1C(=O)c1cnc(NCc2cc(OC(F)(F)F)cc(C3CC3)c2)nc1 [Example 94, (S)-(2-((3-cyclopropyl-5-(trifluoromethoxy)benzyl)ami-no)pyrimidin-5-yl)(2-(methoxymethyl)pyrrolidin-1-yl)methanone] |
| < 100 | O=C(c1cnc(NC2Cc3ccc(C4CC4)cc3C2)nc1)N1CCC12COC2 (stereo not drawn) [Example 125, (2-((5-Cyclopropyl-2,3-dihydro-1H-inden-2-yl)amino)pyrimidin-5-yl)(6-oxa-1-azaspiro[3.3]heptan-1-yl)methanone] |
| < 100 | CC(C)c1cc(CNc2ncc(C(=O)N3CCC3C(C)(C)O)cn2)cc(OC(F)(F)F)c1 (stereo not drawn) [Example 64] |
| ≥ 1000 | COc1cc(CNc2ncc(C(=O)N3CCC3C)cn2)cc(OC)c1 (stereo not drawn) [Example 11] |
| 100 to 1000 | Cc1cc(CNc2ncc(C(=O)N3CCC3C)cn2)cc(OC(F)(F)F)c1 (stereo not drawn) [Example 12] |
| 100 to 1000 | O=C(c1cnc(NCc2cc(OC(F)(F)F)cc(C3CC3)c2)nc1)N1CC2(CCO2)C1 [Example 105, (2-((3-cyclopropyl-5-(trifluoromethoxy)benzyl)ami-no)pyrimidin-5-yl)(1-oxa-6-azaspiro[3.3]heptan-6-yl)methanone] |
| ≥ 1000 | O=C(c1cnc(NCc2cccc(OC(F)F)c2)nc1)N1CCC12COC2 [Example 17] |
| ≥ 1000 | O=C(c1cnc(NCc2cccc(C(F)F)c2)nc1)N1CCC12COC2 [Example 18] |
| 100 to 1000 | O=C(c1cnc(NCc2cccc(Cl)c2Cl)nc1)N1CCC12COC2 [Example 55] |
| < 100 | O=C(c1cnc(NC2Cc3ccc(Cl)cc3C2)nc1)N1CCC12CCOCC2 (stereo not drawn) [Example 47] |
| < 100 | O=C(c1cnc(NCc2cc(Br)cc(OC(F)(F)F)c2)nc1)N1CCC12COC2 [Example 25] |
